Assay results from patent publication US4735953A, “Pharmaceutical preparation for learning stimulation and memory improvement” (priority 1986, dated 1988).

Columns and labels:
[1] = test system: patients; experiment: Clinical study on patients with memory disorders, compared to pyracetam; type: in vivo, human
Excerpt: The preparation according to the present invention was studied in clinics on 130 patients.
As regards diagnosis and sex the patients were distributed as follows:
skull-brain traumata with memory disturbance: 75 patients (52 men and 23 women)
Alzheimer's disease: 15 patients (3 men and 12 women)
Pick's disease: 5 patients (5 men)
Senile dementia: 15 patients (4 men and 11 women)
Vascular dementia (cerabral atero-sclerosis, hypertonic disease): 20 patients (7 men and 13 women)
In the group of patients with skull-brain trauma the patient's age varied from 17 to 60 years, in the other patients--from 52 to 75 years.
In addition to clinico-psychopathological methods of investigation, all the patients were subjected to neuropsychological studies during which specific tasks were offered them to solve. In doing so, the response was assessed against a 4-points scale: 3--maximally pronounced disorder, full or substantially full incapability to deal with the task set; 2--a medium degree of manifestation of the deficiency, solving the task with the experimentator's assistance; 1--minor errors, independent correction of mistakes; 0--lack of disturbances.
The treatment course duration is 30-60 days. In the case of an acute skull-brain trauma (65 patients) the treatment started 15-20 days after the moment of trauma and lasted for 20-30 days.
It is known that the function of memory has a complex brain organization and different zones of brains take part in its regulation. During the studies a multi-faceted assessment of the memory function was carried out; there were assessed: (1) mnestic component of the environmental orientation of a patient; (2) involuntary memory for current events; (3) intentional exo-experimental memory; (4) volume and soundness of audio-speaking memory; (5) volume and soundness of visual memory; (6) operative memory; (7) memory for knowledge acquired before the disease.

[2] = test system: learning ability of rats in a shuttle chamber; experiment: Active avoidance learning in a shuttle chamber, rats; type: in vivo, rat; settings: rats, hypodermally 100 mg/kg
Excerpt: (§1) In these experiments rats are taught to avoid an electric shock by escaping into a next chamber communicating with the first chamber by means of a special opening--a door. An electric current is applied to the chamber door consisting of metal plates. A conditional irritator is a light signal together with a sound click. The learning series consisted of 50 combinations. The number of combinations necessary for the animal's learning to escape into another chamber in response to the conditional signal was determined. Five correct responses out of 6 where regarded as the proof of stability of the acquired knowledge and were denoted as a "learning criterion". After 7 days the educational procedure was repeated, and again the number of combinations necessary to acquire the "learning criterion" was determined. In the case of difference between the first and second readings the percentage of retention of the acquired knowledge was calculated.
(§2) In this experiment the effect of the preparation according to the present invention and prior art preparations was separately evaluated for the purpose of comparison on well-learning and on specially selected poorly learning rats. […] To the poorly learning rats the animals were assigned which reached no "learning criterion" in the teaching series of 50 combinations, or, in other words, a stable knowledge of active avoidance was not worked out in them. […] The preparation according to the present invention and the prior art comparison preparations were administered before the first teaching series or thereafter.
(§3) Also studied were the effects produced upon a single and repeated administration of the preparation according to the present invention for 14 days.

[3] = test system: learning ability of rats preliminarily sorted out for poor learning ability; experiment: Active avoidance learning in a shuttle chamber, rats sorted out for poor learning ability; type: in vivo, rat; settings: poorly learning rats, hypodermally 100 mg/kg
Excerpt: as §1, §2, §3

[4] = test system: rabbit's brain hemispheres; experiment: Amplitude of induced potential in brain hemispheres (acoustic irritation); type: in vivo; settings: rabbits
Experimental: (§4) In the third series of experiments the effect of the preparation according to the present invention on the functional brain asymmetry was studied. The experiments were carried out on rabbits with electrodes implanted in the brain. The electrodes under nembutal narcosis (40 mg/kg) were implanted strictly symmetrically into the bearing zone of the temporal cortex of the right and left hemispheres on its lateral surface, whereas the indifferent electrode was secured to the nasal bones of a rabbit's skull. The acoustic irritation was applied through earphones. As the acoustic irritation a sound click caused by a square-shaped pulse from an electronic stimulator with a frequency of 0.1-0.2 Hz was used; the click intensity was adjusted within the range of from 5 to 80 Db. The amplification of the taken-off biopotentials was effected on an electroencephalograph; the induced potentials were obtained by means of an analyzer. 100 experiments on 20 animals were thus conducted; the interval between experiments on one animal was 7 days. The amplitude and form of the induced potential were determined. The asymmetry factor (Kas) was calculated by the formula: [formula] Ar --amplitude of the induced potential of the […] hemisphere, μV;
(§5) A1 --amplitude of the induced potential of the left hemisphere.
(§6) The test preparations were administered hypodermally in the form of 0.5-1.5% aqueous solutions 20 minutes before the beginning of the measurements.

[5] = test system: cerebral cortex of rabbits; experiment: Asymmetry factor by induced potential in the hearing zone of the cerebral cortex; type: in vivo, rabbit
Experimental: as §4, §5, §6

[6] = test system: learning ability of mice in a shuttle chamber; experiment: Learning ability of mice in a shuttle chamber; type: in vivo, mouse; settings: mice
[7] = hypodermally 10 mg/kg, 12 day (retention)
[8] = hypodermally 30 mg/kg, 12 day (retention)
[9] = hypodermally 100 mg/kg, 1st day
[10] = hypodermally 100 mg/kg, 12 day (retention)
[11] = per os 30 mg/kg, 12 day (retention)
[12] = per os 100 mg/kg, 12 day (retention)

For NC(=O)CN1CCCC1=O [Pyracetam, pyracetam], which “effect on the functional symmetry of the brain and activity of the dominating hemisphere” value ([1]; experimental and clinical studies) is on record?
The value was “no such effect”.

What about the “character of recovery (in words)” value ([1]; patients) of the same molecule?
The value was “uniform regression of all available disorders”.

What about the “Number of combinations to reach the "learning criterion" in II teaching series (after 7 days)” value [2] of the same molecule?
The value was 4.7 ± 0.9.

And the “Number of combinations to reach the "learning criterion" in the I teaching series” value [2]?
The value was 20.8 ± 1.2.

And the “Number of non-taught animals in the group” value [2]?
Its value is 1/20.

And the Percentage knowledge retention [2]?
The Percentage knowledge retention was 70%.

What about the “% of knowledge retention” value [3] of the same molecule?
Its value is 26%.

And the “Number of combinations till appearance of "learning criterion", I teaching” value [3]?
Its value is 30.3 ± 2.5.

What about the “Number of combinations till appearance of "learning criterion", II-checking of retention of knowledge” value [3] of the same molecule?
The value was 22.4 ± 2.1.

And the “Number of untaught animals in the group” value [3]?
The value was 9/20.

What about the “amplitude of induced potentials (in words)” value [4] of the same molecule?
The value was “failed to influence all these characteristics”.

What about the “asymmetry factor (in words)” value [5] of the same molecule?
The value was “failed to influence all these characteristics”.

And the “Asymmetry factor, Preparation” value ([5]; hypodermally 100 mg/kg, control 0.19 ± 0.03)?
Its value is 0.213 ± 0.05.

What about the “learning and memory (in words)” value ([6]; hypodermally) of the same molecule?
Its value is “improves learning, but not memory”.

And the “% of avoidance reactions, group I” value ([6]; hypodermally 10 mg/kg, 1st day)?
Its value is 23%.

And the “% of avoidance reactions, group II” value ([6]; hypodermally 10 mg/kg, 1st day)?
The value was 33%.

And the “% of avoidance reactions, group III” value ([6]; hypodermally 10 mg/kg, 1st day)?
Its value is 48%.

And the “% of avoidance reactions, group IV” value ([6]; hypodermally 10 mg/kg, 1st day)?
The value was 52%.

What about the “% of avoidance reactions, group V” value ([6]; hypodermally 10 mg/kg, 1st day) of the same molecule?
Its value is 60%.

And the “% of avoidance reactions, group VI” value ([6]; hypodermally 10 mg/kg, 1st day)?
The value was 61%.

What about the “% of avoidance reactions, group I” value [6, 7] of the same molecule?
Its value is 60%.

What about the “% of avoidance reactions, group II” value [6, 7] of the same molecule?
The value was 78%.

What about the “% of avoidance reactions, group III” value [6, 7] of the same molecule?
Its value is 80%.

And the “% of avoidance reactions, group IV” value [6, 7]?
The value was 79%.

And the “% of avoidance reactions, group V” value [6, 7]?
The value was 80%.

And the “% of avoidance reactions, group VI” value [6, 7]?
Its value is 78%.

What about the “% of avoidance reactions, group I” value ([6]; hypodermally 30 mg/kg, 1st day) of the same molecule?
Its value is 20%.

And the “% of avoidance reactions, group II” value ([6]; hypodermally 30 mg/kg, 1st day)?
Its value is 32%.

What about the “% of avoidance reactions, group III” value ([6]; hypodermally 30 mg/kg, 1st day) of the same molecule?
The value was 55%.

What about the “% of avoidance reactions, group IV” value ([6]; hypodermally 30 mg/kg, 1st day) of the same molecule?
The value was 67%.

What about the “% of avoidance reactions, group V” value ([6]; hypodermally 30 mg/kg, 1st day) of the same molecule?
Its value is 70%.

And the “% of avoidance reactions, group VI” value ([6]; hypodermally 30 mg/kg, 1st day)?
The value was 75%.

What about the “% of avoidance reactions, group I” value [6, 8] of the same molecule?
The value was 60%.

What about the “% of avoidance reactions, group II” value [6, 8] of the same molecule?
The value was 80%.

And the “% of avoidance reactions, group III” value [6, 8]?
The value was 82%.

What about the “% of avoidance reactions, group IV” value [6, 8] of the same molecule?
Its value is 81%.

What about the “% of avoidance reactions, group V” value [6, 8] of the same molecule?
The value was 84%.

And the “% of avoidance reactions, group VI” value [6, 8]?
Its value is 88%.

And the “% of avoidance reactions, group I” value [6, 9]?
Its value is 24%.

What about the “% of avoidance reactions, group II” value [6, 9] of the same molecule?
The value was 41%.

And the “% of avoidance reactions, group III” value [6, 9]?
The value was 55%.

What about the “% of avoidance reactions, group IV” value [6, 9] of the same molecule?
Its value is 70%.

And the “% of avoidance reactions, group V” value [6, 9]?
The value was 72%.

And the “% of avoidance reactions, group VI” value [6, 9]?
Its value is 74%.

And the “% of avoidance reactions, group I” value [6, 10]?
The value was 62%.

And the “% of avoidance reactions, group II” value [6, 10]?
The value was 90%.

And the “% of avoidance reactions, group III” value [6, 10]?
Its value is 92%.

And the “% of avoidance reactions, group IV” value [6, 10]?
The value was 90%.

What about the “% of avoidance reactions, group V” value [6, 10] of the same molecule?
Its value is 90%.

And the “% of avoidance reactions, group VI” value [6, 10]?
Its value is 92%.

And the “effect upon per os administration (in words)” value ([6]; per os)?
The value was “the effect is noticeably reduced”.

What about the “% of avoidance reactions, group I” value ([6]; per os 30 mg/kg, 1st day) of the same molecule?
Its value is 11%.

And the “% of avoidance reactions, group II” value ([6]; per os 30 mg/kg, 1st day)?
Its value is 17%.

And the “% of avoidance reactions, group III” value ([6]; per os 30 mg/kg, 1st day)?
The value was 31%.

What about the “% of avoidance reactions, group IV” value ([6]; per os 30 mg/kg, 1st day) of the same molecule?
The value was 32%.

And the “% of avoidance reactions, group V” value ([6]; per os 30 mg/kg, 1st day)?
Its value is 33%.

What about the “% of avoidance reactions, group VI” value ([6]; per os 30 mg/kg, 1st day) of the same molecule?
The value was 40%.

What about the “% of avoidance reactions, group I” value [6, 11] of the same molecule?
Its value is 48%.

What about the “% of avoidance reactions, group II” value [6, 11] of the same molecule?
The value was 70%.

And the “% of avoidance reactions, group III” value [6, 11]?
Its value is 71%.

And the “% of avoidance reactions, group IV” value [6, 11]?
The value was 78%.

And the “% of avoidance reactions, group V” value [6, 11]?
Its value is 78%.

What about the “% of avoidance reactions, group VI” value [6, 11] of the same molecule?
Its value is 81%.

And the “% of avoidance reactions, group I” value ([6]; per os 100 mg/kg, 1st day)?
Its value is 21%.

What about the “% of avoidance reactions, group II” value ([6]; per os 100 mg/kg, 1st day) of the same molecule?
The value was 22%.

And the “% of avoidance reactions, group III” value ([6]; per os 100 mg/kg, 1st day)?
Its value is 32%.

What about the “% of avoidance reactions, group IV” value ([6]; per os 100 mg/kg, 1st day) of the same molecule?
Its value is 42%.

And the “% of avoidance reactions, group V” value ([6]; per os 100 mg/kg, 1st day)?
Its value is 43%.

What about the “% of avoidance reactions, group VI” value ([6]; per os 100 mg/kg, 1st day) of the same molecule?
The value was 52%.

What about the “% of avoidance reactions, group I” value [6, 12] of the same molecule?
The value was 69%.

And the “% of avoidance reactions, group II” value [6, 12]?
The value was 80%.

And the “% of avoidance reactions, group III” value [6, 12]?
Its value is 82%.

And the “% of avoidance reactions, group IV” value [6, 12]?
The value was 79%.

And the “% of avoidance reactions, group V” value [6, 12]?
The value was 78%.

What about the “% of avoidance reactions, group VI” value [6, 12] of the same molecule?
The value was 78%.
